Experimental data from patent US10752624B2, “Kinase inhibitors” (Origenis GmbH, priority 2012, dated 2020).

target: LRRK2 (Homo sapiens, UniProt Q5S007); test: LRRK2-LRRK2 G2019S-Assay (LanthaScreen Eu Kinase Binding Assay); conditions: 5 nM LRRK2, 10 nM tracer 236, 2 nM EU-Anti-GST antibody, 1 h at RT; read-out: LRRK2 Activities: IC50
Description: In the assay LanthaScreen™ Eu Kinase Binding Assay by Invitrogen Corporation (Carlsbad) the effect of invention of a compound on the phosphorylation is determined by measurement of fluorescence intensity emission ratio based on the binding and displacement of a proprietary, Alexa Fluor® 647-labeled, ATP-competitive kinase inhibitor scaffold (kinase tracer) to the kinase of interest. Binding of the tracer to the kinase is detected using a europium-labeled anti-tag antibody, which binds to the kinase of interest. Simultaneous binding of both the tracer and antibody to the kinase results in a high degree of FRET (fluorescence resonance energy transfer) from the europium (Eu) donor fluorophore to the Alexa Fluor® 647 acceptor fluorophore on the kinase tracer. Binding of an inhibitor to the kinase competes for binding with the tracer, resulting in a loss of FRET. The fluorescence intensity ratio is directly proportional to the amount of peptide phosphorylation.
To the wells of an 384 well small volume plate (Greiner, Frickenhausen) are added (i) the compound under test in 5% DMSO/distilled water (5 μl), (ii) 5 μl of the kinase antibody mixture resulting in a final concentration 5 nM LRRK2 or their mutants, 2 nM EU-Anti-GST antibody in 1× kinase buffer A. The reaction was started with addition of (iii) 5 μl resulting in a final concentration of 10 nM tracer 236. The assay plate was incubated at RT for 1 h and fluorescence intensity readings were collected using a TECAN M1000 at two wavelengths of λex 340/λem 615 nm and λex 340/λem 665 nm with a delay time of 100 μs and an integration time of 200 μs after 60 minutes. The emission ratio was calculated by division of the acceptor/tracer emission ([…]) by the antibody/donor emission ([…]). The inhibitor concentration was plotted versus the emission ratio to determine the IC50 using XLFit 5.0 (IDBS, Guildford) to fit to a sigmoidal dose response curve with a variable slope.

Chain of LRRK2 (Q5S007 970-2527 limits assumed): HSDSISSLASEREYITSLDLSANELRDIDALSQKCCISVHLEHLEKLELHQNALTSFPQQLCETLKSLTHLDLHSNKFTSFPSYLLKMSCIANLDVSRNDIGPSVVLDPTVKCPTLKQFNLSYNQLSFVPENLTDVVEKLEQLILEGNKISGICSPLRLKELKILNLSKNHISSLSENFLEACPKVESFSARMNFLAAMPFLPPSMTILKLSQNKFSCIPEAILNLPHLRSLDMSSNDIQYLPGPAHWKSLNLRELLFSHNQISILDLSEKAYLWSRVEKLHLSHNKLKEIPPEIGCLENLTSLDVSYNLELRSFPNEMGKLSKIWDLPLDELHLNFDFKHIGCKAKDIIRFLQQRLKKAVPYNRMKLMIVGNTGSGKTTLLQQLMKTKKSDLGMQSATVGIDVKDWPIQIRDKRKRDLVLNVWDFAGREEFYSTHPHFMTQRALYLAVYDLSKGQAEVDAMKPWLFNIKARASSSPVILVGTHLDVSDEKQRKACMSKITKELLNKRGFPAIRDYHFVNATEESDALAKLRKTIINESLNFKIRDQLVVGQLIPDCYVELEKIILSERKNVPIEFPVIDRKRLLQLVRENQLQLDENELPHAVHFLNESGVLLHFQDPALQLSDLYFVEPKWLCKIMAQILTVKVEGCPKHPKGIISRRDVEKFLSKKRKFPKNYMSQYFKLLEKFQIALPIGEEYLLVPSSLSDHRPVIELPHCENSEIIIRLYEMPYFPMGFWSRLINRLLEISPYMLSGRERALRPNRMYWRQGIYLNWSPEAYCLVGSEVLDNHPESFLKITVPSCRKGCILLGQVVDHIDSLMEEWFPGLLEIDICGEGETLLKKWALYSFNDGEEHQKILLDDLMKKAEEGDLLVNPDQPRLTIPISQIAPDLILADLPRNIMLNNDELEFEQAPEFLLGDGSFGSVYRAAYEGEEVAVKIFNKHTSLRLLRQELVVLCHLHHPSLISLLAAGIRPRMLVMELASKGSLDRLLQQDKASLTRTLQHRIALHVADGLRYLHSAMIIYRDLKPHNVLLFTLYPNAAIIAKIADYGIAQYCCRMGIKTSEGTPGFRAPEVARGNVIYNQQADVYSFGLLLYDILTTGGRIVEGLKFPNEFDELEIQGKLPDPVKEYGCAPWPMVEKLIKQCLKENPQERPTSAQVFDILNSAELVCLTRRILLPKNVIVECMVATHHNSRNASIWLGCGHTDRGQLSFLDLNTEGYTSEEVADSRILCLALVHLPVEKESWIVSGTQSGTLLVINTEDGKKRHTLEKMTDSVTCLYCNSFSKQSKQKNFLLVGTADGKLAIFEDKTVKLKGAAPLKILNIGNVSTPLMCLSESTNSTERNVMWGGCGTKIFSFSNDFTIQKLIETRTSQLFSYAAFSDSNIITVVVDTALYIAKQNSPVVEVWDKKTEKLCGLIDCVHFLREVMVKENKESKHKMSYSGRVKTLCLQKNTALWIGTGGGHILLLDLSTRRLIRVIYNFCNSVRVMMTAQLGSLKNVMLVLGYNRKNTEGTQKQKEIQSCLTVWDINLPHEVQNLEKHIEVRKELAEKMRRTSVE

Row | Structure (SMILES) | IC50 [µM]
1 | Cc1cccc2nc(Nc3cccc(S(C)(=O)=O)c3)c3[nH]ncc3c12 [Example 88, 9-methyl-N-(3-(methylsulfonyl)phenyl)-3H-pyrazolo[3,4-c]quinolin-4-amine] | 0.1 to 1
2 | Cc1cccc2nc(Nc3ccc(N4CCOCC4)cc3)c3[nH]ncc3c12 [Example 89, 9-methyl-N-(4-morpholinophenyl)-3H-pyrazolo[3,4-c]quinolin-4-amine] | 0.1 to 1
3 | COc1ccc2nc(Nc3ccc(N4CCOCC4)c(S(C)(=O)=O)c3)c3n[nH]cc3c2c1 [Example 90, 8-methoxy-N-(3-(methylsulfonyl)-4-morpholinophenyl)-2H-pyrazolo[3,4-c]quinolin-4-amine] | 0.1 to 1
4 | COc1ccc2nc(Nc3ccc(N4CCN(C(C)=O)CC4)nc3)c3n[nH]cc3c2c1 [Example 91, 1-(4-(5-((8-methoxy-2H-pyrazolo[3,4-c]quinolin-4-yl)amino)pyridin-2-yl)piperazin-1-yl)ethan-1-one] | 0.1 to 1
5 | CS(=O)(=O)c1cccc2nc(Nc3ccc(C(=O)N4CCOCC4)cc3)c3[nH]ncc3c12 [Example 94, (4-((9-(methylsulfonyl)-3H-pyrazolo[3,4-c]quinolin-4-yl)amino)phenyl)(morpholino)methanone] | 0.1 to 1
6 | CC(C)(C)N1CCN(c2ccc(Nc3nc4cccc(S(C)(=O)=O)c4c4cn[nH]c34)cc2)CC1 [Example 95, N-(4-(4-(tert-butyl)piperazin-1-yl)phenyl)-9-(methylsulfonyl)-3H-pyrazolo[3,4-c]quinolin-4-amine] | 0.1 to 1
7 | COc1ccc2nc(Nc3ccc(N4CCC(N5CCN(C)CC5)CC4)nc3)c3n[nH]cc3c2c1 [Example 96, 8-methoxy-N-(6-(4-(4-methylpiperazin-1-yl)piperidin-1-yl)pyridin-3-yl)-2H-pyrazolo[3,4-c]quinolin-4-amine] | 0.1 to 1
8 | CN1CCN(C2CCN(c3ccc(Nc4nc5cccc(S(C)(=O)=O)c5c5cn[nH]c45)cc3)CC2)CC1 [Example 97, N-(4-(4-(4-methylpiperazin-1-yl)piperidin-1-yl)phenyl)-9-(methylsulfonyl)-3H-pyrazolo[3,4-c]quinolin-4-amine] | 0.1 to 1
9 | COc1ccc(Nc2nc3cccc(S(C)(=O)=O)c3c3cn[nH]c23)cc1OC [Example 99, N-(3,4-dimethoxyphenyl)-9-(methylsulfonyl)-3H-pyrazolo[3,4-c]quinolin-4-amine] | 0.1 to 1
10 | CN1CCN(c2ccc(Nc3nc4cccc(S(C)(=O)=O)c4c4cn[nH]c34)cn2)CC1 [Example 100, N-(6-(4-methylpiperazin-1-yl)pyridin-3-yl)-9-(methylsulfonyl)-3H-pyrazolo[3,4-c]quinolin-4-amine] | 0.1 to 1
11 | COc1ccc2nc(Nc3cnn(C)c3C)c3n[nH]cc3c2c1 [Example 104, N-(1,5-dimethyl-1H-pyrazol-4-yl)-8-methoxy-2H-pyrazolo[3,4-c]quinolin-4-amine] | 0.1 to 1
12 | COc1ccc2nc(Nc3cn(C)nc3C)c3n[nH]cc3c2c1 [Example 105, N-(1,3-dimethyl-1H-pyrazol-4-yl)-8-methoxy-2H-pyrazolo[3,4-c]quinolin-4-amine] | 0.1 to 1
13 | CS(=O)(=O)c1cccc2nc(Nc3ccc(NCCO)cc3)c3[nH]ncc3c12 [Example 106, 2-((4-((9-(methylsulfonyl)-3H-pyrazolo[3,4-c]quinolin-4-yl)amino)phenyl)amino)ethan-1-ol] | 0.1 to 1
14 | CS(=O)(=O)c1cccc(Nc2nc3cccc(S(C)(=O)=O)c3c3cn[nH]c23)c1 [Example 107, 9-(methylsulfonyl)-N-(3-(methylsulfonyl)phenyl)-3H-pyrazolo[3,4-c]quinolin-4-amine] | 0.1 to 1
15 | COc1ccc2nc(Nc3cnn(C)n3)c3n[nH]cc3c2c1 [Example 122, 8-methoxy-N-(2-methyl-2H-1,2,3-triazol-4-yl)-2H-pyrazolo[3,4-c]quinolin-4-amine] | 0.1 to 1

Now from value to compound:

Row | IC50 [µM] | Structure (SMILES)
16 | 0.1 to 1 | CC(=O)N1CCN(c2ccc(Nc3nc4c(F)cccc4c4cn[nH]c34)cc2)CC1 [Example 53, 1-(4-(4-((6-fluoro-3H-pyrazolo[3,4-c]quinolin-4-yl)amino)phenyl)piperazin-1-yl)ethan-1-one]
17 | 0.1 to 1 | COc1cccc2nc(Nc3ccc(-c4ncco4)cc3)c3[nH]ncc3c12 [Example 58, 9-methoxy-N-(4-(oxazol-2-yl)phenyl)-3H-pyrazolo[3,4-c]quinolin-4-amine]
18 | 0.01 to 0.1 | COc1cccc2nc(Nc3ccc(N4CCN(S(C)(=O)=O)CC4)cc3)c3[nH]ncc3c12 [Example 59, 9-methoxy-N-(4-(4-(methylsulfonyl)piperazin-1-yl)phenyl)-3H-pyrazolo[3,4-c]quinolin-4-amine]
19 | 0.1 to 1 | COc1cccc2nc(Nc3ccc(N4CCOCC4=O)cc3)c3[nH]ncc3c12 [Example 60, 4-(4-((9-methoxy-3H-pyrazolo[3,4-c]quinolin-4-yl)amino)phenyl)morpholin-3-one]
20 | 0.01 to 0.1 | COc1cccc2nc(Nc3ccc(C(=O)N4CCCC4)cc3)c3[nH]ncc3c12 [Example 61, (4-((9-methoxy-3H-pyrazolo[3,4-c]quinolin-4-yl)amino)phenyl)(pyrrolidin-1-yl)methanone]
21 | 0.01 to 0.1 | COc1ccc(Nc2nc3ccc(S(C)(=O)=O)cc3c3cn[nH]c23)cc1OC [Example 63, N-(3,4-dimethoxyphenyl)-8-(methylsulfonyl)-3H-pyrazolo[3,4-c]quinolin-4-amine]
22 | 0.01 to 0.1 | COc1cccc2nc(Nc3ccc(N4CCCC4=O)cc3)c3[nH]ncc3c12 [Example 68, 1-(4-((9-methoxy-3H-pyrazolo[3,4-c]quinolin-4-yl)amino)phenyl)pyrrolidin-2-one]
23 | 0.01 to 0.1 | COc1cccc2nc(Nc3ccc(C(=O)N4CCN(C)CC4)cc3)c3[nH]ncc3c12 [Example 69, (4-((9-methoxy-3H-pyrazolo[3,4-c]quinolin-4-yl)amino)phenyl)(4-methylpiperazin-1-yl)methanone]
24 | 0.01 to 0.1 | COc1cccc2nc(Nc3ccc(N4CCOCC4)c(C#N)c3)c3[nH]ncc3c12 [Example 71, 5-((9-methoxy-3H-pyrazolo[3,4-c]quinolin-4-yl)amino)-2-morpholinobenzonitrile]
25 | 0.1 to 1 | COc1ccc(Nc2nc3ccc(C)cc3c3cn[nH]c23)cc1OC [Example 72, N-(3,4-dimethoxyphenyl)-8-methyl-3H-pyrazolo[3,4-c]quinolin-4-amine]
26 | 0.01 to 0.1 | COc1ccc2nc(Nc3ccc(-c4nnc(S)o4)cc3)c3n[nH]cc3c2c1 [Example 84, 5-(4-((8-methoxy-2H-pyrazolo[3,4-c]quinolin-4-yl)amino)phenyl)-1,3,4-oxadiazole-2-thiol]
27 | 0.1 to 1 | COc1ccc2nc(Nc3ccc(N(C)C)nc3)c3n[nH]cc3c2c1 [Example 87, N5-(8-methoxy-2H-pyrazolo[3,4-c]quinolin-4-yl)-N2,N2-dimethylpyridine-2,5-diamine]
28 | < 0.01 | CS(=O)(=O)c1cccc2nc(Nc3ccc(N4CCOCC4)cc3)c3[nH]ncc3c12 [Example 92, 9-(methylsulfonyl)-N-(4-morpholinophenyl)-3H-pyrazolo[3,4-c]quinolin-4-amine]
29 | 0.01 to 0.1 | CC(=O)N1CCN(c2ccc(Nc3nc4cccc(S(C)(=O)=O)c4c4cn[nH]c34)cc2)CC1 [Example 93, 1-(4-(4-((9-(methylsulfonyl)-3H-pyrazolo[3,4-c]quinolin-4-yl)amino)phenyl)piperazin-1-yl)ethan-1-one]
30 | 0.01 to 0.1 | COc1ccc2nc(Nc3cnn(C4CCN(C)CC4)c3)c3n[nH]cc3c2c1 [Example 111, 8-methoxy-N-(1-(1-methylpiperidin-4-yl)-1H-pyrazol-4-yl)-2H-pyrazolo[3,4-c]quinolin-4-amine]
31 | 0.01 to 0.1 | COc1ccc2nc(Nc3cnn(C4CCN(C(C)=O)CC4)c3)c3n[nH]cc3c2c1 [Example 112, 1-(4-(4-((8-methoxy-2H-pyrazolo[3,4-c]quinolin-4-yl)amino)-1H-pyrazol-1-yl)piperidin-1-yl)ethan-1-one]
32 | 0.01 to 0.1 | COCCn1cc(Nc2nc3ccc(S(C)(=O)=O)cc3c3cn[nH]c23)cn1 [Example 113, N-(1-(2-methoxyethyl)-1H-pyrazol-4-yl)-8-(methylsulfonyl)-3H-pyrazolo[3,4-c]quinolin-4-amine]
33 | < 0.01 | COc1cccc2nc(Nc3cnn(C4CCOCC4)c3)c3[nH]ncc3c12 [Example 142, 9-methoxy-N-(1-(tetrahydro-2H-pyran-4-yl)-1H-pyrazol-4-yl)-3H-pyrazolo[3,4-c]quinolin-4-amine]
34 | < 0.01 | CN1CCC(n2cc(Nc3nc4ccc(S(C)(=O)=O)cc4c4cn[nH]c34)cn2)CC1 [Example 154, N-(1-(1-methylpiperidin-4-yl)-1H-pyrazol-4-yl)-8-(methylsulfonyl)-3H-pyrazolo[3,4-c]quinolin-4-amine]
35 | < 0.01 | CC(=O)N1CCC(n2cc(Nc3nc4ccc(S(C)(=O)=O)cc4c4cn[nH]c34)cn2)CC1 [Example 155, 1-(4-(4-((8-(methylsulfonyl)-3H-pyrazolo[3,4-c]quinolin-4-yl)amino)-1H-pyrazol-1-yl)piperidin-1-yl)ethan-1-one]
